Experimental data taken from publication PMC6274642, “Small molecule inhibitors reveal allosteric regulation of USP14 via steric blockade” (Cell Research, 2018).

Tests used:
proteasome-bound USP14 = proteasome-bound USP14 (Homo sapiens, UniProt P54578); assay: Ub-AMC hydrolysis assay, proteasome-activated USP14
Method: It was used to measure the deubiquitinating activity of USP14 variants. The deubiquitination assay was performed by following a published protocol.[7] […] To start the reaction, 1 μM Ub-AMC was added to the system. […] Fluorescence intensity was recorded every 30 s for 15 min. Each experiment was repeated three times, and the average value was calculated.
curves for small-molecule-mediated inhibition of the Ub-AMC hydrolysis activity of
1 nM proteasome. (d-f) Dose-response curves for small-molecule-mediated inhibition of the
Ub-AMC hydrolysis activity of IsoT. The reaction system contained 1 μM Ub-AMC and 10
nM IsoT. All the values correspond to the averages of triplicate experiments.

IsoT = target: T1, IsoT (Homo sapiens, UniProt P45974); assay: Ub-AMC hydrolysis assay, IsoT; format: biochemical; details: 1 μM Ub-AMC, 10 nM IsoT
T1 construct: made in house
T1 sequence (P45974 1-858): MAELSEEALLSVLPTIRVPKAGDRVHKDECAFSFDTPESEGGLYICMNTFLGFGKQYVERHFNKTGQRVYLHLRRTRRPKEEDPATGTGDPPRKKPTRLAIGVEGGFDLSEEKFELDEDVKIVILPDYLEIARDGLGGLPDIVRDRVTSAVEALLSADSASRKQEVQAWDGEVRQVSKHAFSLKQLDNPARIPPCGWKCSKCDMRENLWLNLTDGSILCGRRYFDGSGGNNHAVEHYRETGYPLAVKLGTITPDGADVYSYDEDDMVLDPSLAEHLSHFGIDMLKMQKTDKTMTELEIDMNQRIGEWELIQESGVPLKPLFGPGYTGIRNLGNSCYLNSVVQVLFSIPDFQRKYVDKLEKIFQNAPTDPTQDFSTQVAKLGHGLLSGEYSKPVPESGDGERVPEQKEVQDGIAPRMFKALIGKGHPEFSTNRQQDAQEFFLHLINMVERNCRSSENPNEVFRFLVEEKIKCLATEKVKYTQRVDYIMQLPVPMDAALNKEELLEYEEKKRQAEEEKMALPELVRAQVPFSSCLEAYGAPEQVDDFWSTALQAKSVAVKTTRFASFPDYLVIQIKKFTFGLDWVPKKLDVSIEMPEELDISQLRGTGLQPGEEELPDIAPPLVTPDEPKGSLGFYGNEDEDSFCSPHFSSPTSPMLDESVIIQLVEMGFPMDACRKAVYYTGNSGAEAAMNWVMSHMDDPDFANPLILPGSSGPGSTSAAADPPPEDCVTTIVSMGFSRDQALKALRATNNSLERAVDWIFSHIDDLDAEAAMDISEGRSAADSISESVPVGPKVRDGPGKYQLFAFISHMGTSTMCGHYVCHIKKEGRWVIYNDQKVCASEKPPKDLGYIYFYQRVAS
Description: Ub-AMC hydrolysis activity of IsoT.

USP14 H426E [1] = target: T2, USP14 H426E (Homo sapiens, UniProt P54578, H426E); assay: In vitro Ub-PA assay, USP14 H426E mutant; format: binding; set-up: catalytic domain (residues 96–494) of USP14 were cloned into the pGEX-6P-1 vector; GST (N); made in house
Target sequence in this assay (P54578 96-494 H426E): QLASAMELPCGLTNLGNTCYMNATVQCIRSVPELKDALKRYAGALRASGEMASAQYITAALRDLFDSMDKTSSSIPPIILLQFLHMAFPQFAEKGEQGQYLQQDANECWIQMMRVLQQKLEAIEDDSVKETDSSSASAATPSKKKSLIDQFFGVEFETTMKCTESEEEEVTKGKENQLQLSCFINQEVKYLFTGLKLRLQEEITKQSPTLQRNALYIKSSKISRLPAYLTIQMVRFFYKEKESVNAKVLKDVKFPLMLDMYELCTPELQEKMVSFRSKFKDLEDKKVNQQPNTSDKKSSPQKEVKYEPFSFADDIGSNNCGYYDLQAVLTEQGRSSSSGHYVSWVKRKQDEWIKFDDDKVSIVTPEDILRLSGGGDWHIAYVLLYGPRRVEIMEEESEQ

USP14 = target: T3, USP14 (Homo sapiens, UniProt P54578); assay: Kinetic analysis (Vm, Km) of Ub-AMC hydrolysis by USP14; format: biochemical; details: Km varied, Vm unchanged with inhibitor concentration
T3 construct: Glutathione S-transferase (GST)-tagged full-length USP14; GST (N); made in house
Method: Menten plot of the concentration-dependence of Ub-AMC (1-48 μM) hydrolysis in the presence
The data were fit to a curve by nonlinear regression
(§1) (1 picture or pasted object on this page, not shown here)

Solubility = format: physicochemical; details: qualitative
USP14 Y436A [2] = target: T4, USP14 Y436A (Homo sapiens, UniProt P54578, Y436A); assay: In vitro Ub-PA assay, USP14 Y436A mutant; format: binding; set-up: catalytic domain (residues 96–494) of USP14 were cloned into the pGEX-6P-1 vector; GST (N); made in house
Target sequence in this assay (P54578 96-494 Y436A): as the sequence (P54578 96-494 H426E) above, with E331H, Y341A counted along it

USP14^CAT = target: T5, USP14^CAT (Homo sapiens, UniProt P54578); assay: In vitro Ub-PA assay, USP14^CAT; format: binding; details: 5 mM compound, 3 μM USP14^CAT, preincubation 1 h 25 °C, 12 μM Ub-PA
T5 construct: catalytic domain (residues 96–494) of USP14 were cloned into the pGEX-6P-1 vector; GST (N, cleaved yes); made in house
Method: All the results were visualized by SDS-PAGE and Coomassie blue staining. Ub-PA ubiquitin-propargylamide
We then turned to the biochemical Ub-PA (ubiquitin-propargylamide) assay. […] The covalent attachment of Ub-PA (8 kD) to USP14^CAT (45 kD) produced the novel USP14/Ub-PA complex with an increased molecular weight (53 kD).
(§2) For Ub-PA binding, 3 μM DUB protein (USP14^CAT, USP7^CAT, UCH-L1, or UCH-L3) was mixed with 12 μM Ub-PA for at least 1 h at room temperature in a reaction system containing 25 mM Tris-HCl (pH 7.5) and 150 mM NaCl. […] The DMSO concentration should be no more than 10% (v/v). All the samples were analyzed by SDS-PAGE, and the results are shown.

USP14 Y436A [3] = target: T4, USP14 Y436A; assay: Ub-AMC hydrolysis assay, USP14 Y436A mutant; format: biochemical; set-up: Glutathione S-transferase (GST)-tagged full-length USP14; GST (N); made in house; details: 15 μM compound
Description: (§3) Supplementary information, Fig. S3 Structural and biochemical analyses of the three […]
(§4) (a) H426 of USP14 forms a hydrogen bind with R74 of Ub, while Y476 forms a hydrogen bound with D199. (b) The Y476K, Y476R and D199A point mutations all abolish the formation of USP14/Ub-PA complex. The result was visualized by SDS-PAGE and Coomassie blue staining. (c-f) Linear kinetics of Ub-AMC hydrolysis by USP14 WT, H426E, Y436A and […]
(§5) curves have R2>0.99. Error bars represent SDs.
as §1

USP7 F409A = target: T6, USP7 F409A (Homo sapiens, UniProt Q93009, F409A); assay: Ub-AMC hydrolysis assay, USP7 F409A; format: biochemical; details: 100 μM compound
T6 construct: made in house
Description: To explain the selectivity of IU1, we first compared the sequence conservation among the USP family. USP14 shares homology with USP2, IsoT, USP7, and USP15, ranging from 28% to 35%, in the catalytic domain. […] First, we compared the structure of USP14^CAT-IU1 with that of apo USP7 (Fig. 3a, b). H426 and Y436 in USP14 aligned well with the corresponding residues in USP7. […] Consistent with this scenario, when we compared the primary sequence and structure of USP14^CAT-IU1 with UCH-L1 and UCH-L3, neither the primary sequence nor the structure of USP14 aligned well with UCH-L1 or UCH-L3 (Fig. 3e, f).
(§6) Linear kinetics of Ub-AMC hydrolysis are shown on the left, and the results of the statistical analysis are shown on the right. […] Error bars represent SDs. […] All the results were visualized by SDS-PAGE and Coomassie blue staining

USP14 Y476A = target: T7, USP14 Y476A (Homo sapiens, UniProt P54578, Y476A); assay: Ub-AMC hydrolysis assay, USP14 Y476A mutant; format: biochemical; details: 15 μM compound
T7 construct: Glutathione S-transferase (GST)-tagged full-length USP14; GST (N); made in house
Description: as §3, §4, §5, §1

UCH-L1 = target: T8, UCH-L1 (Homo sapiens, UniProt P09936); assay: In vitro Ub-PA assay, UCH-L1; format: binding; details: 5 mM compound, 3 μM DUB protein, 12 μM Ub-PA
T8 construct: made in house
T8 sequence (P09936 1-223): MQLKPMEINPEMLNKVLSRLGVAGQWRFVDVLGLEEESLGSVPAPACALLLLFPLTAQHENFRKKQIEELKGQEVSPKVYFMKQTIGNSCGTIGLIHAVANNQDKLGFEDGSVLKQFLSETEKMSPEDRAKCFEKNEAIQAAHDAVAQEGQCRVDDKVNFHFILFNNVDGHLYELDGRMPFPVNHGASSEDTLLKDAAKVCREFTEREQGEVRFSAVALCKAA
Method: as §6, §2

USP7 = target: T9, USP7 (Homo sapiens, UniProt Q93009); assay: In vitro Ub-PA assay, USP7; format: binding; details: 5 mM compound, 3 μM DUB protein, 12 μM Ub-PA
T9 construct: 3 μM DUB protein (USP14^CAT, USP7^CAT, UCH-L1, or UCH-L3); made in house
Method: as §6, §2

UCH-L3 = target: T10, UCH-L3 (Homo sapiens, UniProt P15374); assay: In vitro Ub-PA assay, UCH-L3; format: binding; details: 5 mM compound, 3 μM DUB protein, 12 μM Ub-PA
T10 construct: made in house
T10 sequence (P15374 1-230): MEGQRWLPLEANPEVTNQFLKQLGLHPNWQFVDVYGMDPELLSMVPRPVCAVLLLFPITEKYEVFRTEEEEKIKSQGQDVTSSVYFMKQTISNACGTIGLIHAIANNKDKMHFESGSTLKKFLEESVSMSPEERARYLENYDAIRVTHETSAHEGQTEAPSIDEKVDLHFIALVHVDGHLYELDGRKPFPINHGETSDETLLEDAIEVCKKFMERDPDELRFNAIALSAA
Method: as §6, §2

USP14 H426E [4] = target: T2, USP14 H426E; assay: Ub-AMC hydrolysis assay, USP14 H426E mutant; format: biochemical; set-up: Glutathione S-transferase (GST)-tagged full-length USP14; GST (N); made in house; details: 15 μM compound
Description: as §3, §4, §5, §1

T6 sequence (Q93009 whole entry F409A): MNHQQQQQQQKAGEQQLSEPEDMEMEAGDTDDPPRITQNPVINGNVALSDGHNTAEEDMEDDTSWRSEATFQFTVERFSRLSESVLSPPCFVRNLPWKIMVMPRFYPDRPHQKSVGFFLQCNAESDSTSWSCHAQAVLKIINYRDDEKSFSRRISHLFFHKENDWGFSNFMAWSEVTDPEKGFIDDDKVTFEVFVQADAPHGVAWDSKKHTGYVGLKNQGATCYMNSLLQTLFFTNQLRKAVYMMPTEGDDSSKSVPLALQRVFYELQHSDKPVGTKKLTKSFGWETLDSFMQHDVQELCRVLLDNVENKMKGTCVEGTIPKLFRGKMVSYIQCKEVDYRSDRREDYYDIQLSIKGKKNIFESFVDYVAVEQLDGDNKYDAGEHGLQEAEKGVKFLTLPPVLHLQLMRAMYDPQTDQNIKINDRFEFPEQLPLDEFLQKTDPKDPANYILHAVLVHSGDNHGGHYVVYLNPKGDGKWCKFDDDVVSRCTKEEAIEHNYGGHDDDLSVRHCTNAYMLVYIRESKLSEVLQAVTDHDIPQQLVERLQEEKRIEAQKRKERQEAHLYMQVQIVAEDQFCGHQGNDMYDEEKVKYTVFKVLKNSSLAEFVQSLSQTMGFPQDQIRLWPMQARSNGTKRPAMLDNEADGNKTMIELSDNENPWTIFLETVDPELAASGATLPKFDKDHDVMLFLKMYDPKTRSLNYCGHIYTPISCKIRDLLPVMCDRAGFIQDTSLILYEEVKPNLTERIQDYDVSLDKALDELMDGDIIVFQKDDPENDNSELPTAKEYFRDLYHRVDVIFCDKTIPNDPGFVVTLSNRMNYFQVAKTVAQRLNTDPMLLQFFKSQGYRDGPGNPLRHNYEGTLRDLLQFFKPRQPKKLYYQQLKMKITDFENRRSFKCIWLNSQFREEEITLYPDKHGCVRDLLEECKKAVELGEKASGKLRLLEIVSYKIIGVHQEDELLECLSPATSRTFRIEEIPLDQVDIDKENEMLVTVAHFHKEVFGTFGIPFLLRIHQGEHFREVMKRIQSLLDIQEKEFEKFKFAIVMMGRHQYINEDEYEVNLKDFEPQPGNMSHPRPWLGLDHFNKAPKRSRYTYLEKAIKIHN
T9 sequence (Q93009 214-521 limits assumed): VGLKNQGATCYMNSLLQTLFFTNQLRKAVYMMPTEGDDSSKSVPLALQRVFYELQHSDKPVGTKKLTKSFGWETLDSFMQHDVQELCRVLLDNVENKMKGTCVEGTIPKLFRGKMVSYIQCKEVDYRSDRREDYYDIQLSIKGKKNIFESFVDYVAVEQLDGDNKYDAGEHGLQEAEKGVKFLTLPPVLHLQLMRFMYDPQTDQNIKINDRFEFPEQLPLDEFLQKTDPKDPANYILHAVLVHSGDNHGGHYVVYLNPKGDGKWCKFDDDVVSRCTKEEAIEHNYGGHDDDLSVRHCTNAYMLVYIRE
T5 sequence (P54578 96-494): as the sequence (P54578 96-494 H426E) above, with E331H counted along it

Row | Compound | IsoT/USP14 (proteasome-bound USP14; ratio of IC50 values IsoT/USP14) | IC50 (proteasome-bound USP14; read-out: IC50 USP14, 1 μM Ub-AMC, 15 nM USP14, 1 nM proteasome) [µM] | IC50 (IsoT) [µM] | Inhibition of Ub-PA binding to USP14 H426E (USP14 H426E [1]; 2.5 mM IU1-248) | Mode of inhibition of USP14 (USP14) | Solubility (Solubility) | Inhibition of Ub-PA binding to USP14 Y436A (USP14 Y436A [2]; 2.5 mM IU1-248) | Inhibition of Ub-PA binding to USP14 H426E (USP14 H426E [1]; 5 mM IU1) | Inhibition of formation of USP14/Ub-PA complex (USP14^CAT) | Inhibition of Ub-AMC hydrolysis activity of USP14 Y436A (USP14 Y436A [3]) | Effect on Ub-AMC hydrolysis activity of USP7 F409A (USP7 F409A) | Inhibition of Ub-AMC hydrolysis activity of USP14 Y476A (USP14 Y476A) | Inhibition of binding of Ub-PA to UCH-L1 (UCH-L1) | Inhibition of Ub-PA binding to USP14 Y436A (USP14 Y436A [2]; 5 mM IU1) | Inhibition of binding of Ub-PA to USP7 (USP7) | Inhibition of binding of Ub-PA to UCH-L3 (UCH-L3) | Inhibition of Ub-AMC hydrolysis activity of USP14 H426E (USP14 H426E [4])
1 | Cc1cc(C(=O)CN2CCCCC2)c(C)n1-c1ccc(Cl)cc1 [IU1-47] | 42.85 | 0.68 | 29.1 | – | – | – | – | – | – | – | – | – | – | – | – | – | –
2 | Cc1cc(C(=O)CN2CCC(O)CC2)c(C)n1-c1ccc(C#N)cc1 [IU1-248, 1-[1-(4-cyanophenyl)-2,5-dimethyl-1H-pyrrol-3-yl]-2-(4-hydroxyl) piperidylethan-1-one] | – | – | 21.5 | abolished the inhibitory effect | competitive mechanism | significantly improved solubility | abolished the inhibitory effect | – | – | – | – | – | – | – | – | – | –
3 | Cc1cc(C(=O)CN2CCCC2)c(C)n1-c1ccc(F)cc1 [IU1] | – | – | 143 | – | competitive inhibitor | poor solubility | – | could not be inhibited | significantly inhibited | no inhibition | decreased | no inhibition | did not inhibit | could not be inhibited | did not inhibit | did not inhibit | no inhibition
